For one data set, the target named is T1, rThBgl (Trichoderma harzianum, UniProt A0A127SA86).
T1 construct: gene bgl; full-length GH1 beta-glucosidase, bgl gene 1398 bp, pET28a, E. coli Rosetta; N-terminal His6-tag cut with thrombin for assays
Kind of data set: glucose tolerance of beta-glucosidase activity, […] glucose, triplicate. It counts as biochemical. The settings on record: read-out: % activity at 300 mM.

Substrate in the data set “purified protein”: O=[N+]([O-])c1ccc(O[C@@H]2O[C@H](CO)[C@@H](O)[C@H](O)[C@H]2O)cc1
Kind of data set: purified protein. The settings on record: 100 mM sodium phosphate pH 6.0, 40 °C, 0-10 mM substrate, 10 min.

The results in this text go back to publication PMC4802607, “Crystal structure and biochemical characterization of the recombinant ThBgl, a GH1 β-glucosidase overexpressed in Trichoderma harzianum under biomass degradation conditions” (Biotechnology for Biofuels, 2016).

Regarding `OC[C@H]1OC(O)[C@H](O)[C@@H](O)[C@@H]1O` (some centres unmarked) [glucose], the activity at 300000 µM on rThBgl worked out at 50%.

B1: rThBgl (Trichoderma harzianum) (protein)
chain: MLPKDFQWGFATAAYQIEGAIDKDGRGPSIWDTFCAIPGKIADGTSGVTACDSYNRTAEDIALLKSLGAKSYRFSISWSRIIPKGGRDDPVNQLGIDHYAQFVDDLLEAGITPFITLFHWDLPEELHQRYGGLLNRTEFPLDFENYARVMFKALPKVRNWITFNEPLCSAIPGYGSGTFAPGRQSTTEPWIVGHNLLVAHGRAVKVYRDEFKDLNDGQIGIVLNGDFTYPWDSSDPLDREAAERRLEFFTAWYADPIYLGDYPASMRKQLGDRLPEFTPEEKAFVLGSNDFYGMNHYTSNYIRHRTSPATADDTVGNVDVLFYNKEGQCIGPETESSWLRPCPAGFRDFLVWISKRYNYPKIYVTENGTSLKGENDLPKEKILEDDFRVNYYNEYIRAMFTAATLDGVNVKGYFAWSLMDNFEWADGYVTRFGVTYVDYENGQQRFPKKSAKSLKPLFDELIAKE
Usually Km stands for the concentration of substrate that gives half-maximal velocity. B1: in the data set “purified protein”, the Michaelis-Menten constant (Km) was found to be 970 µM.
